The subject of one experiment is MDA-MB-231. Nature of the experiment: Cytotoxicity against human MDA-MB-231 cells after 72 hrs by MTT assay. Type of experiment: functional, cell-based. Particulars: MDA-MB-231, 72 h. (In general: Tetrazolium dyes change colour on reduction, which living cells bring about.)
The next experiment concerns HT-29. In words: Cytotoxicity against human HT-29 cells after 72 hrs by MTT assay. Particulars: HT-29, 72 h.
Another experiment concerns A549. In words: Cytotoxicity against human A549 cells after 72 hrs by MTT assay. Format: functional, cell-based. Particulars: A549, 72 h.
Experiment [1] can be described thus: Cytotoxicity against human MKN45 cells after 72 hrs by MTT assay. As to conditions: MKN-45, 72 h.
Another experiment relates to PBL. In words: Cytotoxicity against human PBL cells after 72 hrs by MTT assay. Type of experiment: cell-based.

Take `COc1cc2c(Oc3ccc(/C=N/NC(=O)Nc4ccccc4)cc3F)ccnc2cc1OCCCN1CCCCC1`: the IC50 in the experiment with MDA-MB-231 was 1.2 µM; in the experiment with HT-29, 0.19 µM; with A549, 0.28 µM; in experiment [1], 0.18 µM; in the experiment with PBL, 25.5 µM.

For the compound `COc1cc2c(Oc3ccc(NC(=O)N/N=C/c4ccc(F)cc4Cl)cc3F)ccnc2cc1OCCCN1CCC(C)CC1`, the IC50 with MDA-MB-231 was determined as 1.5 µM; in the experiment with HT-29 it was 0.44 µM; with A549 it was 0.19 µM; in experiment [1], 0.53 µM; in the experiment with PBL, 79.5 µM.

As for `COc1cc2c(Oc3ccc(NC(=S)N/N=C/c4ccc(F)cc4Cl)cc3F)ccnc2cc1OCCCN1CCCCC1`, the IC50 in the experiment with MDA-MB-231 was found to be 1.4 µM; in the experiment with HT-29 it was 0.42 µM; with A549 it was 0.23 µM; in experiment [1] it was 0.82 µM; with PBL, 34.1 µM.

As to `COc1ccc(/C=N/NC(=O)Nc2ccc(Oc3ccnc4cc(OCCCN5CCCCC5)c(OC)cc34)c(F)c2)cc1`, the IC50 with MDA-MB-231 amounted to 0.84 µM; in the experiment on HT-29 it was 0.59 µM; with A549, 0.54 µM; in experiment [1] it was 0.66 µM; with PBL, 126 µM.

Take `COc1ccc(/C=N/NC(=O)Nc2ccc(Oc3ccnc4cc(OCCCN5CCOCC5)c(OC)cc34)c(F)c2)cc1`: the IC50 was 1.9 µM in the experiment with MDA-MB-231, 0.9 µM with HT-29, 0.77 µM in experiment [1] and 17.2 µM in the experiment with PBL.

As to `C=CCc1cccc(/C=N/NC(=O)CN2CCN(Cc3ccccc3)CC2)c1O` [PAC-1], the figures for the IC50 (in experiment [1]; with PBL) were 0.82 µM and 124 µM, respectively.

In the case of `COc1ccc(/C=N/NC(=O)Nc2ccc(Oc3ccnc4cc(OCCCN5CCC(C)CC5)c(OC)cc34)c(F)c2)cc1`, the IC50 in the experiment with MDA-MB-231 was found to be 1 µM; in the experiment on HT-29, 0.61 µM; in the experiment on A549 it was 0.43 µM; in experiment [1], 0.47 µM; in the experiment with PBL, 23 µM.

For the compound `COc1cc2c(Oc3ccc(NC(=O)N/N=C/c4cccs4)cc3F)ccnc2cc1OCCCN1CCCCC1`, the IC50 with MDA-MB-231 was 1.26 µM; in the experiment with HT-29 it was 0.77 µM; with A549, 0.79 µM; in experiment [1], 0.74 µM; with PBL, 68.7 µM.

With `COc1cc2c(Oc3ccc(NC(=O)N/N=C/c4ccc([N+](=O)[O-])cc4)cc3F)ccnc2cc1OCCCN1CCCC1`, the IC50 came to 0.97 µM with MDA-MB-231, 0.31 µM with HT-29, 0.46 µM in the experiment with A549 and 0.47 µM in experiment [1].

`COc1ccc(/C=N/NC(=O)Nc2ccc(Oc3ccnc4cc(OCCCN5CCCC5)c(OC)cc34)c(F)c2)cc1`: the IC50 in the experiment with MDA-MB-231 was 1.3 µM; with HT-29, 0.69 µM; with A549, 0.68 µM; in experiment [1], 0.75 µM; with PBL, 26.5 µM.

In the case of `COc1cc2c(Oc3ccc(NC(=O)N/N=C/c4cc5ccccc5[nH]4)cc3F)ccnc2cc1OCCCN1CCCCC1`, the IC50 stood at 0.98 µM in the experiment on MDA-MB-231, 0.82 µM with HT-29, 0.78 µM with A549 and 0.83 µM in experiment [1].

By IC50 is commonly meant the point on the concentration scale where inhibition reaches its midpoint. The low end stands for inhibition by little substance, the high end for a need for much substance.
